The record followed here is paper PMC9927415, “Tyrosine Kinase Inhibitors Display Potent Activity against Cryptosporidium parvum” (Microbiology Spectrum, 2022).

As a reminder, the inhibition is the share of the control response that was lost under treatment.

Common to all, as to test: KINOMEscan competitive binding, whole panel
In assay [1] the target is T1, panel of 203 kinases (Homo sapiens, UniProt P04626).
T1 construct: purchased DiscoverX (KINOMEscan)
Particulars: 10 µM, n=1; kinase ERBB2; read-out: Percent inhibition ERBB2. A digest of the protocol: (§1)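 Kinases expressed as T7 bacteriophage fusions; test compound competes with an immobilized ATP-site probe ligand. Kinase still bound to the solid support was quantified and expressed as percentage inhibition.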

The target of assay [2] is T2, panel of 203 kinases (Homo sapiens, UniProt Q96GD4).
T2 construct: purchased DiscoverX (KINOMEscan)
T2 sequence (Q96GD4 whole entry): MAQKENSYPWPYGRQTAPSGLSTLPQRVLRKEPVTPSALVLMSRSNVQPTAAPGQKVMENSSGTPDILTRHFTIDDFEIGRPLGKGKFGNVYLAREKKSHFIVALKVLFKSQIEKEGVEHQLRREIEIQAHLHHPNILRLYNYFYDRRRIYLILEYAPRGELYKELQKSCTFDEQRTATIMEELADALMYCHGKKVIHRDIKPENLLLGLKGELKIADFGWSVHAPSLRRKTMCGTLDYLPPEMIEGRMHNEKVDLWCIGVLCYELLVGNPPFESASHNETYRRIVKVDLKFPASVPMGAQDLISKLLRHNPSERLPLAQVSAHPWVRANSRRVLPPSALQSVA
As to conditions: 10 µM, n=1; kinase AURKB; read-out: Percent inhibition AURKB. In short, it runs like this: as §1

Assay [3] concerns the target T3, panel of 203 kinases (Homo sapiens, UniProt P29320).
T3 construct: purchased DiscoverX (KINOMEscan)
T3 sequence (P29320 21-983): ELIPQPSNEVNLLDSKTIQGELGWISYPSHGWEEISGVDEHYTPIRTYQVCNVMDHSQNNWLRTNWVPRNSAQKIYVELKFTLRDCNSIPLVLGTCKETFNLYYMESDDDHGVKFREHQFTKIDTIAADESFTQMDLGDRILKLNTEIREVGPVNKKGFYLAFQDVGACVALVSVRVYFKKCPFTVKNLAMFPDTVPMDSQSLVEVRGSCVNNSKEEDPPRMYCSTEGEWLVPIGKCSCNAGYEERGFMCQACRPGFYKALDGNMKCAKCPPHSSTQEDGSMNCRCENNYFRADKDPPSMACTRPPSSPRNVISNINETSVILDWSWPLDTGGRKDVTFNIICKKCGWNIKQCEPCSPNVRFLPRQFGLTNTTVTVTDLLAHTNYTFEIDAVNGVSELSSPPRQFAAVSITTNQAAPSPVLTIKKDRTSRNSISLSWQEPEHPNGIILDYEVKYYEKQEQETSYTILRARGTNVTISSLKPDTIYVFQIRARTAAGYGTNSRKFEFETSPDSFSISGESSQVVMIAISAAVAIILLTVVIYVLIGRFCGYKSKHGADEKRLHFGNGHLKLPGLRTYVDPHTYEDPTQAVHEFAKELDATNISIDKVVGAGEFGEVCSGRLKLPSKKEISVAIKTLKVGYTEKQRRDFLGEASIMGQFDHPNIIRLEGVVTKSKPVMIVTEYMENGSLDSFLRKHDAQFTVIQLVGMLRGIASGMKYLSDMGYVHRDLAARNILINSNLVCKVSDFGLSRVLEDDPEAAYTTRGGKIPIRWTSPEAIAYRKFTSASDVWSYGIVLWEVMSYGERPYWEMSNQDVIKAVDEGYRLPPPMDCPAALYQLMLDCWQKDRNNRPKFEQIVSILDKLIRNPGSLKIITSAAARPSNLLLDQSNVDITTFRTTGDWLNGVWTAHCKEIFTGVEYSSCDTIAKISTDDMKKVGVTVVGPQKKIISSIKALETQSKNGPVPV
As to conditions: 10 µM, n=1; kinase EPHA3; read-out: Percent inhibition EPHA3. In short, it runs like this: as §1

In assay [4] the target is T4, panel of 203 kinases (Homo sapiens, UniProt P27361).
T4 construct: purchased DiscoverX (KINOMEscan)
T4 sequence (P27361 whole entry): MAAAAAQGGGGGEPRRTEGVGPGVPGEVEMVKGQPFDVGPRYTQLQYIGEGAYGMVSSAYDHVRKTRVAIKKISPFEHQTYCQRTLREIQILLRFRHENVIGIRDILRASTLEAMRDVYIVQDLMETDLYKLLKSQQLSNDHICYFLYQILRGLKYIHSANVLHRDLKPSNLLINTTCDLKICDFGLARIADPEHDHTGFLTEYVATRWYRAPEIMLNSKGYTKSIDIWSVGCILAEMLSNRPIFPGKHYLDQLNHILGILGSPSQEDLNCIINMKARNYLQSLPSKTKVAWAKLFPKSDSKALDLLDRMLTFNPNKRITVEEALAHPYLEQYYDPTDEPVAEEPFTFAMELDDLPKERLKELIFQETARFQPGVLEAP
As to conditions: 10 µM, n=1; kinase ERK1; read-out: Percent inhibition ERK1. A digest of the protocol:
as §1

Assay [5] has as its target T5, panel of 203 kinases (Homo sapiens, UniProt Q8IWQ3).
T5 construct: purchased DiscoverX (KINOMEscan)
T5 sequence (Q8IWQ3 1-736): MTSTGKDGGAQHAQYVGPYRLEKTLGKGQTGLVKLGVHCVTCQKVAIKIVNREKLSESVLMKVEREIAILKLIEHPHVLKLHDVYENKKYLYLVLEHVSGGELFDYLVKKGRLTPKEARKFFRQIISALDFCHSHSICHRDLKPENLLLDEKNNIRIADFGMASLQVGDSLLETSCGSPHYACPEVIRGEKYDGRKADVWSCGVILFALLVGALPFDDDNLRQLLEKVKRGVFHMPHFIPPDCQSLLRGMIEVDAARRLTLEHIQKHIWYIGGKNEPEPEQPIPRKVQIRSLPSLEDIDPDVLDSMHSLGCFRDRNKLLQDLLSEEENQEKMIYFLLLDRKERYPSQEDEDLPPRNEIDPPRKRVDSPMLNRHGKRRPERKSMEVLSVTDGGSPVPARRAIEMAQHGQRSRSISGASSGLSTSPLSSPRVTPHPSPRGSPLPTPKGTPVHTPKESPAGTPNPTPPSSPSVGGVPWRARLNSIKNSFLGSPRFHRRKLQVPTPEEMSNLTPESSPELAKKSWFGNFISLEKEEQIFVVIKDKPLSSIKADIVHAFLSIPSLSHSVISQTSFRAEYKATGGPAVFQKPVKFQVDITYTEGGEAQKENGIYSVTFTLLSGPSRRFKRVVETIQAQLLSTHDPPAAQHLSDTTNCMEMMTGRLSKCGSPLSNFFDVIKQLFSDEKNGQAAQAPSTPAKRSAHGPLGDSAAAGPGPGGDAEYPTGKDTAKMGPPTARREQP
As to conditions: 10 µM, n=1; kinase BRSK2; read-out: Percent inhibition BRSK2. A digest of the protocol:
as §1

In assay [6] the target is T6, panel of 203 kinases (Homo sapiens, UniProt Q06187).
T6 construct: purchased DiscoverX (KINOMEscan)
T6 sequence (Q06187 whole entry): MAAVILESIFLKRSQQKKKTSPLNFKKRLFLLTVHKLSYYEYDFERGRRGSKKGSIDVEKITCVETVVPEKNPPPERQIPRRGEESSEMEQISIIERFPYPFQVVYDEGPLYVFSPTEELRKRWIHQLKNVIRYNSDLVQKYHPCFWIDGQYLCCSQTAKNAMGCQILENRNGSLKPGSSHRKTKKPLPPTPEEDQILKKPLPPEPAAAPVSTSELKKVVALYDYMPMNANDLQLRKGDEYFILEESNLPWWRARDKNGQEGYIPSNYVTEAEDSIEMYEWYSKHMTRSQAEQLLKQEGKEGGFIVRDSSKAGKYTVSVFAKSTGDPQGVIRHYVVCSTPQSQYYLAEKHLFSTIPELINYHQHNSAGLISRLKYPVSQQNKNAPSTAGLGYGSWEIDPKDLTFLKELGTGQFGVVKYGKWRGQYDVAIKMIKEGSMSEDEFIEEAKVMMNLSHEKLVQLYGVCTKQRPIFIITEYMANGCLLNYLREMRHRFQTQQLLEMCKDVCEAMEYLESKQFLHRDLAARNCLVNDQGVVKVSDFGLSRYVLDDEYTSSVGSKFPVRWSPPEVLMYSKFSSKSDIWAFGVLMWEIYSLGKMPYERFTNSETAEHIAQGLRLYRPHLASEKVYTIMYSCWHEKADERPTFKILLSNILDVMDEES
Particulars: 10 µM, n=1; kinase BTK; read-out: Percent inhibition BTK. In short, it runs like this: as §1

Assay [7] deals with T7, panel of 203 kinases (Homo sapiens, UniProt P54646).
T7 construct: purchased DiscoverX (KINOMEscan)
T7 sequence (P54646 whole entry): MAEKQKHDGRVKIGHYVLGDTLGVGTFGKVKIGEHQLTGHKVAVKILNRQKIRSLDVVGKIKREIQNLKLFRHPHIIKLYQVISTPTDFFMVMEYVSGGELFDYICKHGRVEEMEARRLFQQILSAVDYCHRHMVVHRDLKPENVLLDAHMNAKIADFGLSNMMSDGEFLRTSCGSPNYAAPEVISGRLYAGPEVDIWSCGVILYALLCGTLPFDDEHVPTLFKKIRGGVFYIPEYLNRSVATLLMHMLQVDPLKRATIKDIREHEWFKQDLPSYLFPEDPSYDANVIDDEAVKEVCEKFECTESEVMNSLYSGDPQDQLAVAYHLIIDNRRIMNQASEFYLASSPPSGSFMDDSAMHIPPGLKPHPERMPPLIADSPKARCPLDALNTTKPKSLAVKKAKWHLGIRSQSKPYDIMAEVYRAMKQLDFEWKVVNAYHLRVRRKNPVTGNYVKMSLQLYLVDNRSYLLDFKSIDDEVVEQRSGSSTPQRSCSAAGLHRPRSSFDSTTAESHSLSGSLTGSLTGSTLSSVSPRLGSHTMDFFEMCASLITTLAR
As to conditions: 10 µM, n=1; kinase AMPK-alpha2; read-out: Percent inhibition AMPK-alpha2. In short, it runs like this:
as §1

The target of assay [8] is T8, panel of 203 kinases (Homo sapiens, UniProt O43293).
T8 construct: purchased DiscoverX (KINOMEscan)
T8 sequence (O43293 whole entry): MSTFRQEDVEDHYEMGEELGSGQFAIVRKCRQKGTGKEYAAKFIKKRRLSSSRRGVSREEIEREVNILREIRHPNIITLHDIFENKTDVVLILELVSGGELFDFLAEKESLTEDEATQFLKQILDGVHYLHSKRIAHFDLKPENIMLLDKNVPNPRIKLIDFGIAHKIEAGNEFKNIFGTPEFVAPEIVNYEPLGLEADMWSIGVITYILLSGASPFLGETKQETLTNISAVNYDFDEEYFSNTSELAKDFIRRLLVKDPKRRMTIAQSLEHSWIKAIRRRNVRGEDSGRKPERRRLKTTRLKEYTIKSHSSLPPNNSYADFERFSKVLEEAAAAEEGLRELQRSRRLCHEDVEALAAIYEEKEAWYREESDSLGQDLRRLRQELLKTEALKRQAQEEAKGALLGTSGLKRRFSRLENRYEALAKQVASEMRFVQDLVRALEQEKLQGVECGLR
As to conditions: 10 µM, n=1; kinase DAPK3; read-out: Percent inhibition DAPK3. A digest of the protocol: as §1

Assay [9] addresses T9, panel of 203 kinases (Homo sapiens, UniProt Q9H1R3).
T9 construct: purchased DiscoverX (KINOMEscan)
As to conditions: 10 µM, n=1; kinase MYLK2; read-out: Percent inhibition MYLK2. A digest of the protocol: as §1

The target in assay [10] is T10, panel of 203 kinases (Homo sapiens, UniProt P54764).
T10 construct: purchased DiscoverX (KINOMEscan)
T10 sequence (P54764 20-986): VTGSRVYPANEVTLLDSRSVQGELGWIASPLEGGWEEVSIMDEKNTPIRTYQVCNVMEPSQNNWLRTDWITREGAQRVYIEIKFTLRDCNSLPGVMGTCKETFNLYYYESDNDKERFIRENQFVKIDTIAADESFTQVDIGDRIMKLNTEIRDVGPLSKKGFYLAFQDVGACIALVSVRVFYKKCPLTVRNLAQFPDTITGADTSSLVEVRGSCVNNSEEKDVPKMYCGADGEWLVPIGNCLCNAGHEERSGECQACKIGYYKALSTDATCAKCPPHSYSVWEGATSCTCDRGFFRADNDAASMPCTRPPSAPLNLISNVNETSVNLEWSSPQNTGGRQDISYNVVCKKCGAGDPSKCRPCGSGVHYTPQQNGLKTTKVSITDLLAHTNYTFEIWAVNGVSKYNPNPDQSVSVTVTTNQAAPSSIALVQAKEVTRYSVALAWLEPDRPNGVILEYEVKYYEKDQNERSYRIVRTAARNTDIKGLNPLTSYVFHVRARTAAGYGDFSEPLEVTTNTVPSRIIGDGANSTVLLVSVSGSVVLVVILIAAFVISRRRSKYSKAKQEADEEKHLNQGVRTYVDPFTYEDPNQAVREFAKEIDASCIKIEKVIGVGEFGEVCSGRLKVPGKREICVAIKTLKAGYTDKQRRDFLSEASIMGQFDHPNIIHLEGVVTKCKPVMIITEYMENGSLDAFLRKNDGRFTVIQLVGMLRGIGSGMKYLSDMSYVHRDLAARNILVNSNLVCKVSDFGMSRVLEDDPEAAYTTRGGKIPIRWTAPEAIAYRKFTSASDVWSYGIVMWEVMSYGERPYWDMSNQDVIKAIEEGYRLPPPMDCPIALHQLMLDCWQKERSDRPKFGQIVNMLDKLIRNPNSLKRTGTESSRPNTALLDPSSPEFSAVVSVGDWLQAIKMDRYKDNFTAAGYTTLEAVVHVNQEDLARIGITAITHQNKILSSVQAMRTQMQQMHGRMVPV
As to conditions: 10 µM, n=1; kinase EPHA4; read-out: Percent inhibition EPHA4. In short, it runs like this:
as §1

The target in assay [11] is T11, panel of 203 kinases (Homo sapiens, UniProt Q16539).
T11 construct: purchased DiscoverX (KINOMEscan)
T11 sequence (Q16539 whole entry): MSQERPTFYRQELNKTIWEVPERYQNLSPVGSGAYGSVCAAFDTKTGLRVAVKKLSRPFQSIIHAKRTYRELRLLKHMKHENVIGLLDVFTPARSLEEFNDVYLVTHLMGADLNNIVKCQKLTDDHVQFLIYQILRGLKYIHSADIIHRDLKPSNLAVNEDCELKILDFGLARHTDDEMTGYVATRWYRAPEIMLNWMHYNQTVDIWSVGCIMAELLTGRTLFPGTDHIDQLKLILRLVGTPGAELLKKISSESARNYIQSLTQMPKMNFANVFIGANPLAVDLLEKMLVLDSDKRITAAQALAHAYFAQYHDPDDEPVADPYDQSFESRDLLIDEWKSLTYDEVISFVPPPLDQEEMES
Particulars: 10 µM, n=1; kinase p38-alpha; read-out: Percent inhibition p38-alpha. A digest of the protocol:
as §1

Assay [12] concerns the target T12, panel of 203 kinases (Homo sapiens, UniProt P14616).
T12 construct: purchased DiscoverX (KINOMEscan)
As to conditions: 10 µM, n=1; kinase INSRR; read-out: Percent inhibition INSRR. In short, it runs like this:
as §1

The target of assay [13] is T13, panel of 203 kinases (Homo sapiens, UniProt Q9P2K8, S808G).
T13 construct: purchased DiscoverX (KINOMEscan)
As to conditions: 10 µM, n=1; kinase GCN2(Kin.Dom.2,S808G); read-out: Percent inhibition GCN2(Kin.Dom.2,S808G). In short, it runs like this: as §1

T9 sequence (Q9H1R3 whole entry): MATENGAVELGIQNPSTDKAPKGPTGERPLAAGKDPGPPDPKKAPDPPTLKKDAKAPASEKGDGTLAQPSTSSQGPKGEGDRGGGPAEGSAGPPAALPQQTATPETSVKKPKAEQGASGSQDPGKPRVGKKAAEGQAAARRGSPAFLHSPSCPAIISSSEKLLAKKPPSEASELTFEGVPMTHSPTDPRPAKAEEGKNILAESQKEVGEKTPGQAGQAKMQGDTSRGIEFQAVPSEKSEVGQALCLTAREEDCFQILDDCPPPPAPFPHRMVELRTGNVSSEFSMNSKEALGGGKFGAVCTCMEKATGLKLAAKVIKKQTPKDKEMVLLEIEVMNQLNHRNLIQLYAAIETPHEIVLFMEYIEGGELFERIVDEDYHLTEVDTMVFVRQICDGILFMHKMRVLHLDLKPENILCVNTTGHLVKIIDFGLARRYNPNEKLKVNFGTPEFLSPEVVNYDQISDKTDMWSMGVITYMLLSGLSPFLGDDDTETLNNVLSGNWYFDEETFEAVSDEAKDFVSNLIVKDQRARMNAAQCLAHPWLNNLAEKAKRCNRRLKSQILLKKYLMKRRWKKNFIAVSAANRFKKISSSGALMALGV

In the case of `Clc1ccc(Nc2ncc(-c3ccccc3)s2)cc1` [Compound 10], the inhibition at 10 µM at panel of 203 kinases [1], at panel of 203 kinases [2], at panel of 203 kinases [3], at panel of 203 kinases [4], on panel of 203 kinases [5] and on panel of 203 kinases [6] was 0% each time. In addition, the inhibition at 10 µM on panel of 203 kinases [7], at panel of 203 kinases [8], on panel of 203 kinases [9], at panel of 203 kinases [10], at panel of 203 kinases [11] and at panel of 203 kinases [12] was 0% each time. The inhibition at 10 µM at panel of 203 kinases [13] worked out at 0%.
On to `Nc1ncc2c(-c3ccncc3)c[nH]c2n1` [Compound 11], for which the inhibition at 10 µM is 0% on panel of 203 kinases [1]; 65.6% on panel of 203 kinases [2]; 94.6% on panel of 203 kinases [3]; 0% on panel of 203 kinases [4]; 0% at panel of 203 kinases [5]; 0% on panel of 203 kinases [6]. Moreover, the inhibition at 10 µM turned out to be 0% at panel of 203 kinases [7]; 0% on panel of 203 kinases [8]; 84.9% on panel of 203 kinases [9]; 0% at panel of 203 kinases [10]; 0% at panel of 203 kinases [11]; 0% on panel of 203 kinases [12]. At panel of 203 kinases [13], the inhibition at 10 µM was 88.5%.
